From patent publication US20190084939A1, “ANALOGS OF FEXARAMINE AND METHODS OF MAKING AND USING” (Salk Institute for Biological Studies, priority 2014, published 2019)
“Also recorded” adds a separate entry of the source.

What was measured:
[1] = target: T1, Human FXR full length (Homo sapiens, UniProt Q96RI1); assay: FXR activity screen, luciferase reporter in transfected CV-1 cells; format: cell-based; conditions: fexaramine control in the retest; read-out: Fex EC50
T1 construct: Human FXR full length and RXR full length was obtained from Ronald Evans' laboratory; expressed in transfected cells; host or cells: CV-1 cells
T1 sequence (Q96RI1 1-476 isoform Q96RI1-1): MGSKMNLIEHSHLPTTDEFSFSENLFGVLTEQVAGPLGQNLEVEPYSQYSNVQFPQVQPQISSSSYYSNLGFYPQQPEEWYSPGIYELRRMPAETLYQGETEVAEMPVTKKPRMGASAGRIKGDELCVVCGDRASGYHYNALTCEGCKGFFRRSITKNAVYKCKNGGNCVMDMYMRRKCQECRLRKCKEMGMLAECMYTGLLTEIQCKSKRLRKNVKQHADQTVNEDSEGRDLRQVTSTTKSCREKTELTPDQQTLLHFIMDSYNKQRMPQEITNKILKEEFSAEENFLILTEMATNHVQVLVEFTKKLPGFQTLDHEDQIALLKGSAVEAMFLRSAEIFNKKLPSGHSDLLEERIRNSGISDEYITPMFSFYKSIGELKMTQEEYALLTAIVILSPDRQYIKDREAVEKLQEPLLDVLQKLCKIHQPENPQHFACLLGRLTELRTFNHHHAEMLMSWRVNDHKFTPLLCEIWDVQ
T1 sequence (P19793 1-462 partner): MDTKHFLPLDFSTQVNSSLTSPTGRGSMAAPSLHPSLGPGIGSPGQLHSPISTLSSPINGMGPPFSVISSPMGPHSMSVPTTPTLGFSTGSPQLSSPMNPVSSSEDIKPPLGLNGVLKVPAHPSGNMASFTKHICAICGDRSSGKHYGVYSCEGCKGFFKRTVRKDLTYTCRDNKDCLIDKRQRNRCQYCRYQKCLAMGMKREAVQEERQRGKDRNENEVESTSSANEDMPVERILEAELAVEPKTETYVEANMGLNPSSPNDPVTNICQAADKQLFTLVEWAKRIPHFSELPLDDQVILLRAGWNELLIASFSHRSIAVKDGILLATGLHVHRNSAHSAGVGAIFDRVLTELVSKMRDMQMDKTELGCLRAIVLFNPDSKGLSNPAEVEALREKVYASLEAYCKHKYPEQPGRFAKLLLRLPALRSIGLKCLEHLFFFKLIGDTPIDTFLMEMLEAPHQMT
How it was run: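 CV-1 cells in charcoal-stripped serum, transfected with full-length human FXR, RXR, FXRE-luciferase reporter and β-Gal; 48 h expression, then 24 h compound (0.001–100 μM, quadruplicate, 1:1000 DMSO dilution). Luciferase normalized to β-galactosidase; fold induction vs untreated, efficacy relative to fexaramine, EC50 by non-linear regression.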

[2] = test system: FXR target gene expression; assay: FXR target gene expression (qPCR) in tissues after PO or IP fexaramine; format: in vivo, C57BL/6J mice; conditions: for FXR target gene (SHP) expression in liver and kidney, IP versus PO / FXR target genes (IBABP, OSTα, FGF15) in the intestine / FXR target genes in liver or kidney: 100 mg/kg; for FXR target genes (IBABP, OSTα, FGF15) in the intestine / FXR target genes in liver or kidney: PO
Description: FIGS. 1A-1C are a comparative expression chart and two bar charts, respectively, illustrating increased levels of FXR target gene expression in the intestine relative to expression in the liver and kidney. 8 week-old C57BL/6J mice were treated with vehicle or fexaramine (100 mg/kg) via oral (PO) or intraperitoneal (IP) injection for three days (FIGS. 1A-1B) or five days (FIG. 1C).
FXR target gene expression was analyzed by qPCR. Gene expression was normalized against a vehicle-treated group.
Upon exploration of the in vivo effects of fexaramine (Fex) administration, it was discovered that due to ineffectual absorption, oral (PO) and intraperitoneal (IP) drug delivery produced very different effects (FIGS. 1D and 1E).

[3] = test system: chow-fed mice; assay: chronic PO fexaramine in normal chow-fed mice; format: in vivo
Description: FIGS. 3A-3D are line graphs and a bar graph showing the effects of fexaramine administration in normal chow-fed mice. The mice were treated with vehicle or fexaramine (100 mg/kg) via PO for 5 weeks. Data represent the mean±STD. Statistical analysis as performed with the Student's t test (*p<0.05, **p<0.01).
To investigate the physiological effects of intestinal FXR activation by fexaramine, mice were subjected to chronic fexaramine (100 mg/kg Fex) PO treatment for 5 weeks.

Compound: COC(=O)/C=C/c1cccc(N(Cc2ccc(-c3ccc(N(C)C)cc3)cc2)C(=O)C2CCCCC2)c1 [Fexaramine, fexaramine]
- EC50 [1]: 63 nM
- FXR target gene (SHP) expression in liver and kidney, IP versus PO [2]: increases
- FXR target gene (SHP) expression in liver and kidney, IP versus PO ([2]; listed as Fex): only seen in liver and kidney after IP treatment
- FXR target genes (IBABP, OSTα, FGF15) in the intestine [2]: substantially enhances
- FXR target genes in liver or kidney [2]: intestinally-restricted; also recorded: not in the liver or kidney
- FXR target genes (IBABP, OSTα, FGF15) in the intestine ([2]; listed as Fex): induced multiple FXR target genes in the intestine
- FXR target genes in liver or kidney ([2]; listed as Fex): failed to affect
- induction of FXR target gene SHP throughout the intestine ([2]; acute PO and IP, 100 mg/kg for five days): robust induction
- weight gain, basal metabolic activity and glucose tolerance ([3]; chow-fed mice, 100 mg/kg PO 5 weeks): indistinguishable from vehicle-treated mice
- glucose homeostasis ([3]; normal chow-fed mice, range of doses): no effects observed
